This passage reports IC50 and inhibition results from patent US7579356B2, “Thia-tetraazaacenaphthylene kinase inhibitors” (Janssen Pharmaceutica NV, priority 2005, dated 2009).

pIC50: −log10 of the molar value.

For the first experiment, the target named is T1, EGFR (Homo sapiens, UniProt P00533).
T1 construct: The intracellular portion of EGFR started at nucleotide 2189 (corresponding to amino acid 667) and ended at the termination codon; made in house; host or cells: Sf9 insect cells (baculovirus)
T1 sequence (P00533 669-1210 limits assumed): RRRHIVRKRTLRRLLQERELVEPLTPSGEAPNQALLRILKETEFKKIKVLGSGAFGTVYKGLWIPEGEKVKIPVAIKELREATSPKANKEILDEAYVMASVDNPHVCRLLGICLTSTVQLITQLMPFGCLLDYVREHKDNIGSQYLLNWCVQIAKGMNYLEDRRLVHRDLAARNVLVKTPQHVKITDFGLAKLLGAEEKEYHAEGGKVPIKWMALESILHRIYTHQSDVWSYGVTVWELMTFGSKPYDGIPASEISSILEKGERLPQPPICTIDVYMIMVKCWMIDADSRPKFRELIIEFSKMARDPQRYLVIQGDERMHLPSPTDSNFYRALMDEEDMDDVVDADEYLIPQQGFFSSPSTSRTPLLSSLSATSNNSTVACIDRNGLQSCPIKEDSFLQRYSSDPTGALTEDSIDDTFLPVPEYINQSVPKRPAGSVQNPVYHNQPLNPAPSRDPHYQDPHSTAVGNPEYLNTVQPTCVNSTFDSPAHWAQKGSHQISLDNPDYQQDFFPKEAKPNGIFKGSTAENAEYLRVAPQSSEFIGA
The experiment in a line: EGFR Kinase Assay. The conditions noted are these: GST-EGFR, ATP 5 μM. The format is biochemical. The text has this:
The EGFR kinase used was a fusion of Glutathione-S-Transferase (GST) and a PCR amplified intracellular portion of EGFR (Accession Number NM_005228). The intracellular portion of EGFR started at nucleotide 2189 (corresponding to amino acid 667) and ended at the termination codon. The portion was PCR amplified with primers that added the lambda attB sequences to each end, recombined into an entry vector, then into a GST destination vector (as described in Gateway Technologies Manual by Invitrogen Corporation, Carlsbad, Calif.).
The destination vector was recombined in the DH10BAC strain of bacteria to produce a bacmid. The bacmid was transfected into Sf 9 cells and the supernatant containing the baculovirus was collected. The GSTEGFR protein was purified using large cultures of Sf 9 cells infected with stock virus. After an appropriate period of time, the cells were collected and lysed. The GSTEGFR was then purified from the lysate on Glutathione-Sepharose columns (as described by Amersham Biosciences, Buckinghamshire, United Kingdom).
The EGFR substrate was prepared by biotinylating polyGluTyr (128 mg) (Sigma, St. Louis, Mo.) in a 1×PBS buffer incubated together with a 12-fold molar excess of Sulfo-NHS-LC-Biotin on ice for at least 2 hrs. The free biotin was separated from the biotinylated polyGluTyr on a gel filtration column.
A mixture of a 10× kinase buffer (500 mM Tris at pH 8.0, 100 mM Magnesium Chloride and 1 mM Sodium Vanadate), DTT (1 mM final from 500 mM stock), ATP (5 μM final from 10 mM stock), biotinylated polyGluTyr (10 μg/μL stock), γ-^33P ATP (10 μCl/μL stock) and water was added to each well (for a total of 90 μL/well) of a Streptavidin Flashplate (Perkin Elmer, Wellesley, Mass.).
Test compound in 100% DMSO (2 μL) was added to the appropriate wells. Diluted GSTEGFR (1:300 dilution in 50 mM Tris at pH 8.0 and 0.1% bovine serum albumin) (10 μL) was added to the wells to initiate the reactions.
The plates were incubated at 30° C. for 1 hr with shaking. The reacted contents were removed and the plates were sequentially washed three times with a 1×PBS stop buffer (300 μL without Magnesium and Calcium) and 100 mM EDTA. After the final wash, the same stop buffer (200 μL) was added to the wells. The plates were then sealed and read on the TopCount scintillation counter.
Test compounds were assayed in triplicate at 16 concentrations at half-log dilutions starting at 200 uM. A maximum and minimum signal for the assay was determined on each plate. The percent inhibition of a test compound was calculated according to the formula: […]
For a series of test concentrations, the IC50 was derived by graphing percent inhibition against the log of the concentrations tested for a given compound. For those compounds without an IC50, the inhibition values in percent are shown at a test concentration of 2 μM. For compounds with multiple values, each value represents a separate assay result.
Consider `O=C1Nc2c([N+](=O)[O-])sc3ncnc(c23)N1c1ccc(F)c(Cl)c1` [Cpd 156, 5-(3-chloro-4-fluoro-phenyl)-2-nitro-3H,5H-1-thia-3,5,6,8-tetraaza-acenaphthylen-4-one], for which the pIC50 – broadly, the IC50 on a negative log10 scale, so that one unit is a factor of ten – is 5.86.

The compound `O=C(Nc1ccc(NCCCN2CCOCC2)nc1)c1sc2ncnc3c2c1NC(=O)N3c1ccc(F)c(Cl)c1` [Cpd 6, 5-(3-chloro-4-fluoro-phenyl)-4-oxo-4,5-dihydro-3H-1-thia-3,5,6,8-tetraaza-acenaphthylene-2-carboxylic acid [6-(3-morpholin-4-yl-propylamino)-pyridin-3-yl]-amide] had a pIC50 of 7.08.

`COc1cc(NC(=O)c2sc3ncnc4c3c2NC(=O)N4c2ccc(F)c(Cl)c2)ccc1O` [Cpd 19, 5-(3-chloro-4-fluoro-phenyl)-4-oxo-4,5-dihydro-3H-1-thia-3,5,6,8-tetraaza-acenaphthylene-2-carboxylic acid (4-hydroxy-3-methoxy-phenyl)-amide] gave a pIC50 of 7.37.

For `O=C(Nc1ccc(CNC[C@H]2CCCO2)cc1)c1sc2ncnc3c2c1NC(=O)N3c1ccc(F)c(Cl)c1` [Cpd 17, 5-(3-chloro-4-fluoro-phenyl)-4-oxo-4,5-dihydro-3H-1-thia-3,5,6,8-tetraaza-acenaphthylene-2-carboxylic acid [4-({[(2R)-tetrahydro-furan-2-ylmethyl]-amino}-methyl)-phenyl]-amide], the pIC50 is 7.36.

Compound `Nc1sc2ncnc3c2c1NC(=O)N3c1ccc(F)c(Cl)c1` [Cpd 157, 2-amino-5-(3-chloro-4-fluoro-phenyl)-3H,5H-1-thia-3,5,6,8-tetraaza-acenaphthylen-4-one] had a pIC50 of 6.43.

Compound `O=C1Nc2c(-c3ccccc3)sc3ncnc(c23)N1c1ccc(F)c(Cl)c1` [Cpd 8, 5-(3-chloro-4-fluoro-phenyl)-2-phenyl-3H,5H-1-thia-3,5,6,8-tetraaza-acenaphthylen-4-one] gave a pIC50 of 6.27.

Take `C#Cc1cccc(N2C(=O)Nc3c(C(=O)Nc4ccc(CNC5CCNCC5)cc4)sc4ncnc2c34)c1` [Cpd 24, 5-(3-ethynyl-phenyl)-4-oxo-4,5-dihydro-3H-1-thia-3,5,6,8-tetraaza-acenaphthylene-2-carboxylic acid [4-(piperidin-4-ylaminomethyl)-phenyl]-amide]: the pIC50 was 6.90.

In turn, `COc1cc(NC(=O)c2sc3ncnc4c3c2NC(=O)N4c2ccc(F)c(Cl)c2)ccc1OCCCN1CCCCC1` [Cpd 21, 5-(3-chloro-4-fluoro-phenyl)-4-oxo-4,5-dihydro-3H-1-thia-3,5,6,8-tetraaza-acenaphthylene-2-carboxylic acid [3-methoxy-4-(3-piperidin-1-yl-propoxy)-phenyl]-amide] gave a pIC50 of 7.57.

The compound `COc1cc(NC(=O)c2sc3ncnc4c3c2NC(=O)N4c2ccc(F)c(Cl)c2)ccc1OCCN1CCOCC1` [Cpd 20, 5-(3-chloro-4-fluoro-phenyl)-4-oxo-4,5-dihydro-3H-1-thia-3,5,6,8-tetraaza-acenaphthylene-2-carboxylic acid [3-methoxy-4-(2-morpholin-4-yl-ethoxy)-phenyl]-amide] showed a pIC50 of 7.52.

Regarding `COc1cc(NC(=O)c2sc3ncnc4c3c2NC(=O)N4c2ccc(F)c(Cl)c2)ccc1OCCC1CCNCC1` [Cpd 22, 5-(3-chloro-4-fluoro-phenyl)-4-oxo-4,5-dihydro-3H-1-thia-3,5,6,8-tetraaza-acenaphthylene-2-carboxylic acid [3-methoxy-4-(2-piperidin-4-yl-ethoxy)-phenyl]-amide], the pIC50 was 7.38.

The compound `COc1cc(N2C(=O)Nc3c(C(=O)Nc4ccc(CN5CCCCC5)cc4)sc4ncnc2c34)c(Cl)c(OC)c1OC` [Cpd 26, 5-(2-chloro-3,4,5-trimethoxy-phenyl)-4-oxo-4,5-dihydro-3H-1-thia-3,5,6,8-tetraaza-acenaphthylene-2-carboxylic acid (4-piperidin-1-ylmethyl-phenyl)-amide] showed a pIC50 of 5.03.

For the compound `O=C(Nc1nccs1)c1sc2ncnc3c2c1NC(=O)N3c1ccc(F)c(Cl)c1` [Cpd 4, 5-(3-chloro-4-fluoro-phenyl)-4-oxo-4,5-dihydro-3H-1-thia-3,5,6,8-tetraaza-acenaphthylene-2-carboxylic acid thiazol-2-ylamide], the pIC50 was 7.14. This pIC50 is 2.11 log units higher than that of the compound before.

As to `COc1ccc(C(=O)Nc2sc3ncnc4c3c2NC(=O)N4c2ccc(F)c(Cl)c2)cc1OC` [Cpd 159, N-[5-(3-chloro-4-fluoro-phenyl)-4-oxo-4,5-dihydro-3H-1-thia-3,5,6,8-tetraaza-acenaphthylen-2-yl]-3,4-dimethoxy-benzamide], the pIC50 was 5.98.

In turn, `COc1ccc(CC(=O)Nc2sc3ncnc4c3c2NC(=O)N4c2ccc(F)c(Cl)c2)cc1OC` [Cpd 158, N-[5-(3-chloro-4-fluoro-phenyl)-4-oxo-4,5-dihydro-3H-1-thia-3,5,6,8-tetraaza-acenaphthylen-2-yl]-2-(3,4-dimethoxy-phenyl)-acetamide] showed a pIC50 of 5.61.

The compound `NCc1ccc(NC(=O)c2sc3ncnc4c3c2NC(=O)N4c2ccc(F)c(Cl)c2)cn1` [Cpd 23, 5-(3-chloro-4-fluoro-phenyl)-4-oxo-4,5-dihydro-3H-1-thia-3,5,6,8-tetraaza-acenaphthylene-2-carboxylic acid (6-aminomethyl-pyridin-3-yl)-amide] showed a pIC50 of 7.57.

In turn, `COc1ccc(NC(=O)c2sc3ncnc4c3c2NC(=O)N4c2ccc(F)c(Cl)c2)cc1OC` [Cpd 2, 5-(3-chloro-4-fluoro-phenyl)-4-oxo-4,5-dihydro-3H-1-thia-3,5,6,8-tetraaza-acenaphthylene-2-carboxylic acid (3,4-dimethoxy-phenyl)-amide] had a pIC50 of 7.43.

`O=C(Nc1cccnc1)c1sc2ncnc3c2c1NC(=O)N3c1ccc(F)c(Cl)c1` [Cpd 5, 5-(3-chloro-4-fluoro-phenyl)-4-oxo-4,5-dihydro-3H-1-thia-3,5,6,8-tetraaza-acenaphthylene-2-carboxylic acid pyridin-3-ylamide] showed a pIC50 of 7.16.

`COc1cc(NC(=O)c2sc3ncnc4c3c2NC(=O)N4c2cc(OC)c(OC)c(OC)c2)ccc1OCCN1CCOCC1` [Cpd 27, 4-oxo-5-(3,4,5-trimethoxy-phenyl)-4,5-dihydro-3H-1-thia-3,5,6,8-tetraaza-acenaphthylene-2-carboxylic acid [3-methoxy-4-(2-morpholin-4-yl-ethoxy)-phenyl]-amide] gave a pIC50 of 4.38.

The same experiment, now with this note: test concentration of 2 μM; compounds without an IC50; read-out: EGFR inhibition in percent.
Consider `COc1cc(N2C(=O)Nc3c(C(=O)Nc4ccc(CN5CCCCC5)cc4)sc4ncnc2c34)cc(OC)c1OC` [Cpd 28, 5-(3,4,5-trimethoxy-phenyl)-4-oxo-4,5-dihydro-3H-1-thia-3,5,6,8-tetraaza-acenaphthylene-2-carboxylic acid (4-piperidin-1-ylmethyl-phenyl)-amide], for which the inhibition (commonly how much of the control response was suppressed) at 2 µM was 15%.
